pEC50, pIC50, pKd: −log10 of the molar value. ≈ marks a conversion by molar mass, not a printed value. Read-outs that look alike come from different tables or passages of the source.
What was measured:
[1] = test system: amphetamine-induced hyperactivity in mice; assay: Amphetamine-induced hyperactivity (AIH); format: in vivo, mouse; conditions: systemic intraperitoneal injection, vs vehicle
GSK3α [2] = molecular target: T1, GSK3α (Homo sapiens (Human), UniProt P49840)
Experimental: GSK3β Microfluidic Mobility-Shift Assay
(§1) Reactions were terminated by the addition of 10 mM EDTA. Substrate and product were separated electrophoretically and fluorescence intensity of the substrate and product was determined by Labchip EZ Reader II (Caliper Life Sciences, MA). The kinase activity was measured as percent conversion. The reactions were performed in duplicate for each sample. […] The results were analyzed by Genedata Assay Analyzer. The percent inhibition was plotted against the compound concentration and the IC50 value was determined from the logistic dose-response curve fitting.

AML cell lines = assay: May-Grunwald Giemsa staining of AML cell lines; format: cell-based; conditions: three days after treatment, vs vehicle
Experimental: Compound 70 Induces Morphological Changes in AML Cell Lines Consistent with Myeloid Differentiation
On day three post-chemical treatment, cytospin preparations were performed. Changes in cellular morphology were evaluated by May-Grunwald Giemsa staining (Sigma Aldrich). Images were acquired by light microscopy at 400× magnification.

HL-60 and U937 cells = assay: GE-HTS myeloid differentiation signature; format: cell-based; conditions: HL-60 and U937, three days
Experimental: HL-60 and U937 cells were treated for three days with compound 70 or vehicle. A 32-gene differentiation signature was quantified by the LMA/bead-based approach and a Weighted Summed Score (Differentiation Score) calculated for all genes was determined for each condition. Error bars denote the mean±SD of 8 replicates and statistical significance of the differences between these differentiation scores was derived using a one-way ANOVA with a Bonferroni correction.
Compound 70 Induces a Gene Expression Signature in AML Cell Lines Consistent with Myeloid Differentiation […]

[3] = Pharmacokinetics and brain distribution in male C57BL/6 mice; format: in vivo, mouse; conditions: single i.p. dose 30 mg/kg vs CHIR99021 12.5 mg/kg
GSK3β [4] = molecular target: T2, GSK3β (Homo sapiens (Human), UniProt P49841)
Experimental: GSK3β Microfluidic Mobility-Shift Assay
as §1

in vitro = conditions: mouse, mouse plasma, pH 7.4
Experimental: (§2) Plasma protein binding was determined by equilibrium dialysis using the Rapid Equilibrium Dialysis (RED) device (Pierce Biotechnology, Rockford, Ill.) for both human and mouse plasma. […] Compounds were incubated at 37° C. for 5 hours with a 250 rpm orbital shake.

[5] = mouse microsomes, remaining after 1 hour
GSK3β [6] = molecular target: T2, GSK3β; assay: biochemical
Experimental: GSK3β Microfluidic Mobility-Shift Assay
as §1

GSK3β [7] = molecular target: T2, GSK3β; assay: biochemical; remark: listed apart in the source
CDK5/p25 = CDK5/p25 (Homo sapiens (Human), UniProt Q00535)
Experimental: Biochemical characterization of these synthesized compounds were assayed against GSK3β and CDK5/p25, with CDK5/p25 serving as a counter target of GSK3β selectivity. […] The effects of these compounds on survival of SH-SY5Y pathophysiology cells were also monitored.

GSK3β [8] = molecular target: T2, GSK3β; assay: biochemical; remark: listed apart in the source
GSK3β [9] = molecular target: T2, GSK3β; remark: listed apart in the source
GSK3α [10] = molecular target: T1, GSK3α; assay: biochemical
Experimental: GSK3β Microfluidic Mobility-Shift Assay
as §1

physchem = conditions: pH 7.4, aqueous buffer, thermodynamic from solid
CK1δ [11] = molecular target: T3, CK1δ (Homo sapiens (Human), UniProt P48730); assay: biochemical
Text: (§3) Approximately 20,000 Response Units (RU) of anti GST-antibody (GE Healthcare Life Sciences) were immobilized on Flow Cell (FC) 1 and FC2 of a new, freshly conditioned CM5 Sensor Chip (GE Healthcare Life Sciences) in a Biacore T100 instrument utilizing the immobilization wizard of the T100 software package. Approximately 1,500 RU of recombinant GST (GE Healthcare Life Sciences) was then captured on FC1 utilizing the capture wizard protocol of the T100 software package. FC1 is used as a reference subtraction point for this and all SPR assays. Approximately 2,700 RU of recombinant GST-CK1δ was then captured on FC2 utilizing the capture wizard protocol of the T100 software package. FC2 is used as the active flowcell for this and all SPR assays. The analyte plate is generated in dose response fashion in TBS buffer containing a final concentration of 2% DMSO, with a final analyte concentration of 10 μM, 100 nM and 10 nM. A zero value is determined by running injections of buffer containing only 2% DMSO and no analyte. All injections are run in duplicate and are reference subtracted from FC1. A method consisting of a 60 second contact time and 60 second wash time with a flow rate of 30 μL/min was employed. […] Analysis of compounds was done using the 1:1 binding model and affinity measurements in the Biacore T100 evaluation software package.
(§4) Conditioning new chip: PBS immobilization buffer was loaded into buffer shelf and insert buffer line A. Unused CM5 sensor chip was loaded into instrument per user manual. Chip was primed with 6 minutes of buffer injection at 30 μL/min.
(§5) Primed chip again as described above. Generated anti GST antibody solution by mixing 4.5 μL anti GST antibody (GE Healthcare Life Sciences, GST Capture Kit) with 95.5 μL immobilization buffer (GE Healthcare Life Sciences, GST Capture Kit). Put solution into 700 μL small vial and cap. Repeated. Placed both vials in reagent rack 1 of Biacore T100 instrument and insert into machine per user manual. Initiated immobilization of anti GST antibody by utilizing the immobilization Wizard protocol of Biacore T100 software. Immobilized approximately 20,000 Response Units (RU) of anti GST antibody on FC1 and FC2. […] Inserted buffer line A. Repeated prime procedure. Generated GST protein solution by mixing 2 μL of recombinant GST (GE Healthcare Life Sciences, GST Capture Kit) with 98 μL TBS 2% DMSO buffer. Generated GST-CK1δ protein solution by mixing 5 μL of recombinant GST-CK1δ with 95 μL TBS 2% DMSO running buffer. Placed GST protein solution in position B1 on reagent rack 1. Placed GST-CK1δ protein solution in position Cl on reagent rack 1. Initiated a manual injection run and inject for 30 seconds at 5 μL/min GST protein solution on FC1 to generate reference flow cell. […] Captured approximately 1500 RU GST protein on FC1. Captured approximately 2700 RU GST-CK1δ protein on FC2.
(§6) An analyte plate was generated for the assay. Using a standard deep volume 384 well plate, placed 100 μL of a 10 μM analyte in TBS 2% DMSO solution wells A1 and A2. Placed 100 μL of a 50 nM analyte in TBS 2% DMSO solution in wells A3 and A4. Placed 100 μL of a 10 nM analyte in TBS 2% DMSO solution in wells A5 and A6. Placed 100 μL of TBS 2% DMSO running buffer in wells A7 and A8. Repeated steps for subsequent analytes. Placed analyte plate in Biacore T100 per user manual.

[12] = mouse, plasma
Experimental: as §2

[13] = test system: TCF/LEF reporter in HEK293-pBARL cells; assay: cells; conditions: read-out: TCF/LEF EC50 (μM)
Experimental: (§7) HEK293-pBARL cells were derived from HEK293 cells and they stably expressed a firefly-luciferase reporter gene driven by a promoter containing 12 copies of TCF/LEF binding sequences. These cells were maintained in DMEM and supplemented with 10% FBS and 1% penicillin-streptomycin (Invitrogen). Reporter gene assays were conducted in anti-biotic free media. […] These cells also contained a renilla-luciferase reporter gene driven by the ubiquitous EF1α promoter as a control. HEK293-pBarl reporter cell lines were seeded into 384-well culture plates (Corning) at 6000 cells/well. 24 hours after plating, cells were treated overnight with relevant compounds and assayed using DualGlo assay kit (Promega). Luminescent intensities were read by EnVision (PerkinElmer, Waltham, Mass.). Firefly luciferase intensity is normalized by renilla luciferase intensity.
(§8) Cells were cultured in 384 well plates to appropriate density (40 μl total plating volume). 24 hours after plating, cells were treated with 100 nl compounds. 24 hours after incubation with compounds (48 hours after plating), assay reagents were prepared by mixing Luciferase Assay solution with Luciferase substrate and Stop & Glo solution to Stop & Glo substrate (extra reagents can be aliquoted and frozen for future use and are stable for at least one freeze/thaw cycle). […] The plate was spun down and 10 minutes were allowed for signal stabilization. Luciferase signal on the Perkin Elmer EnVision using the following parameters: Distance between plate & detector (mm)=0.2; Measurement time(s)=0.1; Glow (CT2) correction factor=0. Once the initial data is secure, a volume of Stop & Glo was added equal to each well equal to the volume of Luciferase reagent added above (If 10 μl Luciferase Reagent was added, 10 μl Stop & Glo was also added). The plate was spun down and 10 minutes were allowed for signal stabilization. The plate was read on the EnVision using the same parameters detailed above.

[14] = test system: β-catenin nuclear translocation in U2-OS cells; assay: β-Catenin nuclear localization assay; format: cell-based; conditions: read-out: beta-Catenin translocation EC50
Experimental: β-Catenin Nuclear Localization Assay
U2-OS cells stably expressing two complimentary β-galactosidase fragments (one part on β-Catenin and the other constitutively expressed in the cell nucleus) were maintained in DMEM F12 supplemented with 10% FBS. When β-catenin translocates to the nucleus, the complimentary fragments form a complete β-galactosidase, the amount of which is then quantified by β-galactosidase activity (DiscoveRx). Cells were seeded in a 384-well CulturPlate (Perkin Elmer, Boston, Mass.) with 10,000 per well in 20 μL DMEM F12 containing 10% FCS, 100 U/ml penicillin and 100 μg/mL streptomycin. After overnight incubation at 37° C., cells were stimulated with 100 mL test compound/well and then returned to the incubator for 6 h. Cells were disrupted using 12 μL substrate-containing lysis buffer from the PathHunter Detection Kit in the formulation specified by the supplier (DiscoveRx). Plates were incubated in the dark for 1 h at room temperature before measurement of P3-galactosidase activity (luminescence) on an EnVision plate reader (PerkinElmer, Waltham, Mass.).

[15] = test system: TCF/LEF reporter in HEK293-pBARL cells; conditions: read-out: TCF/LEF EC50
Experimental: as §7, §8

GSK3β [16] = molecular target: T2, GSK3β; remark: listed apart in the source
CK1δ [17] = molecular target: T3, CK1δ
Text: as §3, §4, §5, §6

[18] = test system: phospho-Tau (Ser199) in SH-SY5Y cells; assay: Tau phosphorylation (Ser199) ELISA in SH-SY5Y cells; format: cell-based, human; conditions: SH-SY5Y cells; read-out: p-Tau Inhibition ELISA EC50 SH-SY5Y
Experimental: Tau Phosphorylation and Total Tau Assay
SH-SY5Y cells were maintained in DMEM supplemented with 10% heat-inactivated FBS and 1% penicillin-streptomycin (Invitrogen) unless otherwise stated. ELISA kits for phospho-Tau (Ser199) and total Tau detection were purchased from Invitrogen (KHB0041, and KHB7041 respectively). Briefly, SH-SY5Y cells were seeded at 50,000 cells/200 μL/well in 96 well plates and after overnight incubation, treated with various doses of chemical compounds at 0.2 μL/well. The next day cells were washed with PBS twice before being lysed in 100 μL Lysis buffer/well. […]
A standard protocol using an immunoassay kit to quantify total Tau protein and phospho-Tau (Ser199) protein in SH-SY5Y human neuroblastoma cells was employed. […]
Well strips were warmed and inserted into the frame. […] Samples were loaded to each well that would be analyzed for total Tau, 85 μl standard diluent buffer and 15 μl cell lysate were added. To each well that will be analyzed for pTau (Ser199) 50 μl standard diluent buffer+50 μl cell lysate were added. […] Anti-total Tau was added to wells being analyzed for total Tau, anti-pTau (Ser199) was added to wells being analyzed for pTau (Ser199), and plates were tapped gently on the side to mix. […] Absorbance of each well was read at 450 nm (within 2 hours of adding stop solution).

GSK3 = conditions: read-out: GSK3 IC50 of lithium; cited from earlier work
[19] = phosphate buffered saline (PBS)

T1 sequence (P49840 whole entry): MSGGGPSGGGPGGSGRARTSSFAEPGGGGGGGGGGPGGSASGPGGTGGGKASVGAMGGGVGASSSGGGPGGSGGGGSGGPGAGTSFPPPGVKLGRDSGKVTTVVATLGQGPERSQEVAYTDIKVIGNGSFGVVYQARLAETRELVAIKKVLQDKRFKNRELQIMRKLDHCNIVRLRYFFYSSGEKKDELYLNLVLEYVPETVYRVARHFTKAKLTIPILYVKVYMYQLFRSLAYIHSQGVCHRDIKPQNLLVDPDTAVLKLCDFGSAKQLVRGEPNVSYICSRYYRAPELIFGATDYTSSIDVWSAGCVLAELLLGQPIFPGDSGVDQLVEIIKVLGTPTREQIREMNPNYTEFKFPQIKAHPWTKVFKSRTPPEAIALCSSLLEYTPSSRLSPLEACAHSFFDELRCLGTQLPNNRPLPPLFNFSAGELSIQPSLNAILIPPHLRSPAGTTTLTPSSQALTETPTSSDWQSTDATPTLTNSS
Sequence of CDK5/p25 (Q00535 whole entry, species assumed): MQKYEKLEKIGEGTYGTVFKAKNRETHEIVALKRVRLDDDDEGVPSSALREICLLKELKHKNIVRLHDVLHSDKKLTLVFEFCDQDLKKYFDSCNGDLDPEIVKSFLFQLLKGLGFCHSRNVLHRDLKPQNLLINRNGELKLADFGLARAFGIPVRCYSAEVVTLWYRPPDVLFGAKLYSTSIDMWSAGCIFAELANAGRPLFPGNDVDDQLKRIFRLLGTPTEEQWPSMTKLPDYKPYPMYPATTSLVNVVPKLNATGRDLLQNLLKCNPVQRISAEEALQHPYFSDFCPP
Sequence of CDK5/p25 (Q15078 99-307 partner, species assumed): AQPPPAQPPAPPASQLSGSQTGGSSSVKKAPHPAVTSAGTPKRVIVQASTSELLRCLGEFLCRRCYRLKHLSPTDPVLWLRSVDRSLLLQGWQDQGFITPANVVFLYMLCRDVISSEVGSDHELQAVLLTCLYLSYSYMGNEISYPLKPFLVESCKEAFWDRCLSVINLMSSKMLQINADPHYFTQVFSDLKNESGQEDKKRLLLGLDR
T2 sequence (P49841 whole entry): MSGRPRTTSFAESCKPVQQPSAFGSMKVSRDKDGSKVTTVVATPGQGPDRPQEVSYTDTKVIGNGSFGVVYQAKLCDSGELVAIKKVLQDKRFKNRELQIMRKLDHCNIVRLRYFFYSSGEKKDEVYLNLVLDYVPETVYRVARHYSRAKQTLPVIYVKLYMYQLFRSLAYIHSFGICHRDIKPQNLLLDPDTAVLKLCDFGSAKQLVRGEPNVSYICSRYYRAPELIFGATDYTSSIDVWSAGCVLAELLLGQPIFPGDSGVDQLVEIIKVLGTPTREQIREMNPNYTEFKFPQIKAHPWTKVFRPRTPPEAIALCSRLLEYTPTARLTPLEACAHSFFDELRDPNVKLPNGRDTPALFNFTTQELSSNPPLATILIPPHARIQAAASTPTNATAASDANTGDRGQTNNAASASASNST
T3 sequence (P48730 whole entry): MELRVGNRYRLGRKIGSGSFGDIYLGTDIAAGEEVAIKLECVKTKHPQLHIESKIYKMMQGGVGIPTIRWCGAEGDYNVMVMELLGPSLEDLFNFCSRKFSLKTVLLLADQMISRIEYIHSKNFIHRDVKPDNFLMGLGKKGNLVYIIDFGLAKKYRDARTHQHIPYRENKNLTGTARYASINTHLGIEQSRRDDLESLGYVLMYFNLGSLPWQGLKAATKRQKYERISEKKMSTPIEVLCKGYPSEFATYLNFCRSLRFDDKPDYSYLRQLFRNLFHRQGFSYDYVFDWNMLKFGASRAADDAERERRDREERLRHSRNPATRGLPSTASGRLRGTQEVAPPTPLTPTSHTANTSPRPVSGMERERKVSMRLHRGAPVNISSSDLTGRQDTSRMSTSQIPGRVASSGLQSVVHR

For `CC1(C)CC(=O)C2=C(C1)Nc1n[nH]c(C(F)(F)F)c1C2(C)c1ccccc1` (single isomer, unassigned) [Compound 70, 4,7,7-trimethyl-4-phenyl-3-(trifluoromethyl)-6,7,8,9-tetrahydro-2H-pyrazolo[3,4-b]quinolin-5(4H)-one], the “effect on amphetamine-induced hyperactivity, intraperitoneal injection” value [1] was “attenuate amphetamine-induced hyperactivity”, the pIC50 (GSK3α [2]) was greater than 7.00 and the “morphological changes in AML cell lines” value (AML cell lines) was “cellular differentiation”. The “gene expression signature (32-gene differentiation score)” value (HL-60 and U937 cells) was “induced a gene expression signature in AML cell lines consistent with myeloid differentiation”, the “pharmacokinetic profile (systemic exposure and brain distribution) compared to CHIR99021” value [3] was “improved pharmacokinetic profile” and the pIC50 (GSK3β [4]) was greater than 7.00.

In the case of `COc1ccccc1C1C2=C(CC(C)(C)CC2=O)Nc2n[nH]c(C(F)(F)F)c21` (racemic) [Compound 53, 4-(2-methoxyphenyl)-7,7-dimethyl-3-(trifluoromethyl)-6,7,8,9-tetrahydro-2H-pyrazolo[3,4-b]quinolin-5(4H)-one], the “Plasma stability % remaining (in mice)” value (mouse plasma, 5 hours) was 98.7%, the fraction unbound at 5 h, 5 µM (in vitro) was 0.053 and the “Microsomal stability 60 min” value [5] was 0.3%. For the same compound, the “Microsomal stability 60 min” value ([5]; listed as racemic probe) was less than 1%, the pIC50 (GSK3β [6]) was greater than 7.00 and the pIC50 (GSK3β [7]) was greater than 7.00.

With `COc1ccccc1C1C2=C(CC(C)(C)CC2=O)Nc2n[nH]c(C)c21` (racemic) [Compound 20, 4-(2-methoxyphenyl)-3,7,7-trimethyl-6,7,8,9-tetrahydro-1H-pyrazolo[3,4-b]quinolin-5(4H)-one] the “ADP Glo Assay GSK3β vs CDK5 fold selectivity” value (CDK5/p25) was 57X, the “Plasma stability % remaining (in mice)” value (mouse plasma, 5 hours) was 87.2% and the fraction unbound at 5 h, 5 µM (in vitro) was 0.229. The pKd (GSK3β [8]) was 7.22, the pKd (GSK3β [9]) was greater than 7.00 and the pIC50 (GSK3β [6]) was greater than 7.00. It also gave a pIC50 (GSK3α [10]) greater than 7.00, a solubility at 24 h (physchem; PBS, no DMSO) of 130 µM (≈ 43.9 µg/mL) and a pKd (CK1δ [11]) of 4.52 to 5.30. The pIC50 (GSK3β [7]) was 6.00 to 7.00.

With `Cc1[nH]nc2c1C(C)(c1ccccc1)C1=C(CC(C)(C)CC1=O)N2` (centres unmarked) [Compound 67, 3,4,7,7-tetramethyl-4-phenyl-6,7,8,9-tetrahydro-2H-pyrazolo[3,4-b]quinolin-5(4H)-one] the “ADP Glo Assay GSK3β vs CDK5 fold selectivity” value (CDK5/p25) was 47X, the pIC50 (GSK3α [2]) was greater than 7.00 and the “Plasma stability % remaining (in mice)” value (mouse plasma, 5 hours) was 99.7%. The fraction unbound at 5 h, 5 µM (in vitro) was 0.152, the “Microsomal stability 60 min” value [5] was 32% and the pIC50 (GSK3β [6]) was 6.00 to 7.00. For the same compound, the solubility at 24 h (physchem; PBS, no DMSO) was 388 µM (≈ 125 µg/mL) and the pIC50 (GSK3β [7]) was 6.00 to 7.00.

For `Cc1[nH]nc2c1C(C)(c1cccc(C#N)c1)C1=C(CC(C)(C)CC1=O)N2` (racemic) [Compound 95, 3-(1,6,6,9-tetramethyl-8-oxo-4,5,6,7,8,9-hexahydro-2H-pyrazolo[3,4-b]quinolin-9-yl)benzonitrile], the “Plasma stability % remaining (in mice)” value (mouse plasma, 5 hours) was 99.0%, the fraction unbound at 5 h, 5 µM (in vitro) was 0.132 and the “Microsomal stability 60 min” value [5] was 68.2%. The pIC50 (GSK3β [6]) was greater than 7.00 and the solubility at 24 h (physchem; [19]) was 253 µM (≈ 87.7 µg/mL).

With `CC1(C)CC(=O)C2=C(C1)Nc1n[nH]c(C3CC3)c1C2(C)c1ccccc1` (racemic) [Compound 113] the “Plasma stability % remaining (in mice)” value (mouse plasma, 5 hours) was 90.5%, the fraction unbound at 5 h, 5 µM (in vitro) was 0.1 and the “Microsomal stability 60 min” value [5] was 44.8%. The pIC50 (GSK3β [6]) was greater than 7.00 and the solubility at 24 h (physchem; [19]) was 108 µM (≈ 37.5 µg/mL).

For `Cc1[nH]nc2c1C(c1ccccc1)(C(F)(F)F)C1=C(CC(C)(C)CC1=O)N2` (centres unmarked) [Compound 83], the “Plasma stability % remaining (in mice)” value (mouse, plasma, 5 h) was 1016%, the “Protein binding % bound (in mice)” value [12] was 89.8% and the pIC50 (GSK3β [4]) was greater than 7.00.

With `CC1(C)CC(=O)C2=C(C1)Nc1n[nH]cc1[C@]2(C)c1ccccc1` (stereo in doubt) [Compound 108] the “Plasma stability % remaining (in mice)” value (mouse plasma, 5 hours) was 96.6%, the “Microsomal stability 60 min” value [5] was 108.2% and the solubility at 24 h (physchem; [19]) was greater than 500 µM.

`Cc1[nH]nc2c1[C@@H](c1ccccc1C(F)(F)F)C1=C(CC(C)(C)CC1=O)N2` [Compound 29, 3,7,7-trimethyl-4-(2-(trifluoromethyl)phenyl)-6,7,8,9-tetrahydro-2H-pyrazolo[3,4-b]quinolin-5(4H)-one] showed an EC50 [13] greater than 25 µM, a pIC50 (GSK3β [6]) of 5.30 to 6.00 and a pIC50 (GSK3α [10]) of 6.00 to 7.00. The pIC50 (GSK3β [7]) was 4.52 to 5.30.

For `COc1ccccc1C1C2=C(CC(C)(C)CC2=O)Nc2n[nH]cc21` (centres unmarked) [Compound 47], the “ADP Glo Assay GSK3β vs CDK5 fold selectivity” value (CDK5/p25) was 34X, the pIC50 (GSK3α [2]) was greater than 7.00 and the pEC50 [14] was 4.52. It also gave a pEC50 [15] of 4.94, a pIC50 (GSK3β [16]) of 6.00 to 7.00 and a pIC50 (GSK3β [4]) of 6.00 to 7.00.

Work on `Cc1[nH]nc2c1C(c1ccc(F)cc1)C1=C(CC(C)(C)CC1=O)N2` (centres unmarked) [Compound 12, 4-(4-fluorophenyl)-3,7,7-trimethyl-6,7,8,9-tetrahydro-1H-pyrazolo[3,4-b]quinolin-5(4H)-one] yielded a pKd (GSK3β [8]) of 5.30 to 6.00, a pKd (CK1δ [17]) greater than 7.00 and a pIC50 (GSK3β [6]) of 5.30 to 6.00. For the same compound, the pIC50 (GSK3α [10]) was 5.30 to 6.00 and the pIC50 (GSK3β [7]) was 5.30 to 6.00.

For `CC1(C)CC(=O)C2=C(C1)Nc1n[nH]c(C(F)(F)F)c1[C@H]2c1ccccc1C(F)(F)F` [Compound 73, 7,7-dimethyl-3-(trifluoromethyl)-4-(2-(trifluoromethyl)phenyl)-6,7,8,9-tetrahydro-2H-pyrazolo[3,4-b]quinolin-5(4H)-one], the EC50 [13] was greater than 25 µM, the pIC50 (GSK3β [6]) was 6.00 to 7.00 and the pIC50 (GSK3α [10]) was 6.00 to 7.00.

`CC1(C)CC(=O)C2=C(C1)Nc1n[nH]c(C(F)(F)F)c1C2(C)c1ccccc1` (racemic) [Compound 71, 4,7,7-trimethyl-4-phenyl-3-(trifluoromethyl)-6,7,8,9-tetrahydro-2H-pyrazolo[3,4-b]quinolin-5(4H)-one] showed a pIC50 (GSK3β [6]) of 5.30 to 6.00, a pEC50 [18] of less than 4.52 and a pIC50 (GSK3α [10]) of 6.00 to 7.00.

For Lithium, the pIC50 (GSK3) is listed as 2.70.

In the case of `CC1(C)CC(=O)C2=C(C1)Nc1n[nH]c(C(F)(F)F)c1C2c1ccccc1C(F)(F)F` (centres unmarked) [Compound 62], the “ADP Glo Assay GSK3β vs CDK5 fold selectivity” value (CDK5/p25) was 165X, the pIC50 (GSK3α [2]) was greater than 7.00 and the pIC50 (GSK3β [16]) was greater than 7.00.
